According to patent US4331670A (priority 1979, dated 1982):

What was measured:
Pyricularia orzae = assay: whole plant or invertebrate; format: in vivo, Pyricularia orzae (rice plant, Chukyo Asahi); conditions: in Oryza sativa, 120 h, read-out: Protective value
Tetranychus telarius (L) = assay: Test 6: mortality of larvae and adults of Tetranychus telarius on kidney bean leaf; format: in vivo; conditions: foliar, 72 h, leaf dipped, wettable powder of Composition No. 5, three days after treatment, read-out: Percent mortality
Experimental: Young seedling of kidney bean treated to cut off leaves except one primordial leaf was transplanted in a cup and about 30 of larvae and adults of Tetranychus telarius (L) were inoculated on the primordial leaf. This was dipped for 10 seconds in each solution obtained by diluting each wettable powder of Composition No. 5 containing each active ingredient with water at the concentration of 800 ppm and was dried in air and was kept in a constant temperature chamber with lighting at 28° C. Three days after the treatment, mortality was measured and each percent mortality was calculated as follows. [formula]

Plutella xylostella = assay: Test 11: mortality of larvae of Plutella xylostella on treated cabbage leaf; format: in vivo; conditions: foliar, 192 h, leaf dipped, emulsifiable concentrate Composition No. 3, eight days, read-out: Percent mortality
Description: Each emulsifiable concentrate of each active ingredient as Composition No. 3 was dispersed in water at a concentration of 800 ppm. Each leaf of cabbage was dipped into each emulsion for about 10 seconds and taken up and dried in air.
A wet filter paper was put in each Petri dish (diameter of 9 cm), and each treated leaf was put on the filter paper. Larvae of Plutella xylostella at 2nd to 3rd instar were charged and the dish was covered with a cap and kept in a constant temperature chamber with lighting at 28° C. Eight days after the charge, mortality was measured and each percent mortality was calculated.

Botrytis cinerea = assay: Test 9: protective value on cucumber inoculated with Botrytis cinerea; format: in vivo, Botrytis cinerea (cucumber plant, Suyo); conditions: 72 h; for pest or weed control at 250 ppm: 10 ml sprayed, lesion length three days after inoculation
Experimental: In each unglazed pot having a diameter of 9 cm, cucumber plant (Suyo) was cultured. At one leaf stage, 10 ml. of each solution of each active ingredient having a concentration of 250 ppm was sprayed by a spray gun. After maintaining the pot in a green-house at 24° to 25° C. for one day, a disc (punched agar disc) obtained by culturing Botrytis cinerea on a potato-glucose-agar medium (PDA medium) was put on the leaf of cucumber to inoculate them. Three days after the inoculation, lengths of lesions were measured and each protective value was calculated as Test 2.
In accordance with the test, except the concentration of the active ingredient was decreased, the comparative tests of Compound No. 7 and Reference compound were carried out.

Rhizoctonia solani = assay: whole plant or invertebrate; format: in vivo, Rhizoctonia solani (rice plant, Chukyo Asahi); conditions: in Oryza sativa, 120 h, read-out: Preventive value
Sphaerotheca fuliginea = assay: whole plant or invertebrate; format: in vivo, Sphaerotheca fuliginea (cucumber plant, Suyo); conditions: Podosphaera fuliginea, in Cucumis sativus, 240 h, read-out: Protective value
Callosobruchus chinensis = assay: Test 7: mortality of adults of Callosobruchus chinensis on film in Petri-dish; format: in vivo; conditions: 400 μg per Petri-dish of 9 cm, 25° C., 24 hours, read-out: Percent mortality
Experimental: Each active ingredient was dissolved in acetone to prepare each solution having the specific concentration. 1 Ml. of the solution (400 μg. of each active ingredient) was uniformly adhered on the inner bottom surface of Petri-dish having a diameter of 9 cm to form a film. In the dish, 15 of adults of Callosobruchus chinensis were charged and the dish was covered with a cap and kept in a constant temperature chamber at 25° C. for 24 hours. Each percent mortality was calculated as that of Test 6.

[1] = test system: Collectotrichum lagenarium; assay: Test 3: protective value on cucumber inoculated with Collectotrichum lagenarium; format: in vivo, Collectotrichum lagenarium (cucumber plant, Suyo); conditions: 500 ppm, 10 ml sprayed; lesions six days after inoculation
Experimental: In each unglazed pot having a diameter of 9 cm, cucumber plant (Suyo) was cultured. At one leaf stage, 10 ml. of each solution of each active ingredient having a concentration of 500 ppm was sprayed by a spray gun. After maintaining the pot in a green-house at 24° to 25° C. for one day, each spore suspension of Collectotrichum lagenarium was sprayed. Six days after the inoculation, number of lesions on the first leaf of seedling was observed. The protective value was calculated as Test 1.

Compound	pest or weed control at 100 ppm (Pyricularia orzae)	mortality at 800 ppm (Tetranychus telarius (L))	mortality at 800 ppm (Plutella xylostella)	pest or weed control at 100 ppm (Rhizoctonia solani)	mortality at 400 µg/dish (Callosobruchus chinensis)	other results
O=[N+]([O-])c1cc(C(F)(F)F)c(Cl)c([N+](=O)[O-])c1Nc1ncc(Cl)cc1C(F)(F)F [compound 29]	100%	100%	100%	100%		pest or weed control at 250 ppm (Botrytis cinerea): 100%
O=[N+]([O-])c1cc(C(F)(F)F)cc([N+](=O)[O-])c1Nc1ncccc1C(F)(F)F [compound 37]	100%	100%		100%		pest or weed control at 250 ppm (Botrytis cinerea): 93%
CCOc1c(C(F)(F)F)cc([N+](=O)[O-])c(Nc2ncc(C(F)(F)F)cc2Cl)c1[N+](=O)[O-] [compound 40, N-(3-chloro-5-trifluoromethyl-2-pyridyl)-2,6-dinitro-3-ethoxy-4-trifluoromethylaniline]	100%	100%	100%	100%		
O=[N+]([O-])c1cc([N+](=O)[O-])c(Nc2nc(Cl)ccc2C(F)(F)F)c(C(F)(F)F)c1 [compound 66, N-(2-chloro-5-trifluoromethyl-6-pyridyl)-2,4-dinitro-6-trifluoromethylaniline]			100%			pest or weed control at 100 ppm (Sphaerotheca fuliginea): 100%
O=[N+]([O-])c1cc(C(F)(F)F)c(Cl)c([N+](=O)[O-])c1Nc1nc(Cl)c(Br)cc1C(F)(F)F [compound 31]				90%		pest or weed control at 500 ppm (Sphaerotheca fuliginea): 100%
O=[N+]([O-])c1cc(C(F)(F)F)cc([N+](=O)[O-])c1Nc1c(Cl)cncc1Cl [compound 15, N-(3,5-dichloro-4-pyridyl)-2,6-dinitro-4-trifluoromethylaniline]	100%	100%	100%	100%		pest or weed control at 500 ppm (Sphaerotheca fuliginea): 100%
O=[N+]([O-])c1cc([N+](=O)[O-])c(Nc2ncc(Br)cc2Cl)c(C(F)(F)F)c1 [compound 63]			100%	100%	100%	
O=[N+]([O-])c1cc(C(F)(F)F)cc([N+](=O)[O-])c1Nc1ncc(Cl)cc1C(F)(F)F [compound 27]	100%	100%				
CCCOc1c(C(F)(F)F)cc([N+](=O)[O-])c(Nc2ncc(C(F)(F)F)cc2Cl)c1[N+](=O)[O-] [compound 41]	95%	100%	100%	95%		
O=[N+]([O-])c1cc([N+](=O)[O-])c(Nc2ncc(C(F)(F)F)cc2Cl)c(C(F)(F)F)c1 [compound 65]			100%	100%	100%	pest or weed control at 50 ppm (Pyricularia orzae): 100%
O=[N+]([O-])c1cc(C(F)(F)F)c(Oc2ccc(O)cc2)c([N+](=O)[O-])c1Nc1ncc(C(F)(F)F)cc1Cl [compound 49]		100%		100%		pest or weed control at 250 ppm (Botrytis cinerea): 100%
O=[N+]([O-])c1cc(C(F)(F)F)cc([N+](=O)[O-])c1Nc1ncc(C(F)(F)F)cc1Cl [Compound No. 2]	100%			100%	100%	
COc1c(C(F)(F)F)cc([N+](=O)[O-])c(Nc2ncc(C(F)(F)F)cc2Cl)c1[N+](=O)[O-] [compound 39]	100%	100%		100%		
O=[N+]([O-])c1cc([N+](=O)[O-])c(Nc2ncc(Cl)cc2Cl)c(C(F)(F)F)c1 [compound 60, N-(3,5-dichloro-2-pyridyl)-2,4-dinitro-6-trifluoromethylaniline]			100%	100%	100%	pest or weed control at 50 ppm (Pyricularia orzae): 100%
O=[N+]([O-])c1ccc(Nc2c(Cl)c(F)nc(F)c2Cl)c(C(F)(F)F)c1 [Reference compound, N-(2,6-difluoro-3,5-dichloro-4-pyridyl)-N-(4-nitro-2-trifluoromethylphenyl)amine, reference compound]		40%	0%			pest or weed control at 12.5 ppm (Pyricularia orzae): 0%; pest or weed control at 25 ppm (Pyricularia orzae): 0%; pest or weed control at 62.5 ppm (Botrytis cinerea; 62.5 ppm): 0%
O=[N+]([O-])c1cc(C(F)(F)F)cc([N+](=O)[O-])c1Nc1ncc(Br)cc1C(F)(F)F [compound 28]	100%	100%				
Cc1nc(Nc2c([N+](=O)[O-])cc([N+](=O)[O-])cc2C(F)(F)F)c(Cl)c(C)c1Cl [compound 77, N-(3,5-dichloro-4,6-dimethyl-2-pyridyl)-2,4-dinitro-6-trifluoromethylaniline]			100%		100%	
Cc1c(Cl)cnc(Nc2c([N+](=O)[O-])cc(C(F)(F)F)c(Cl)c2[N+](=O)[O-])c1Cl [compound 12]	100%					Protective value [1]: 75%
O=[N+]([O-])c1cc([N+](=O)[O-])c(Nc2ccc(Cl)cn2)c(C(F)(F)F)c1 [compound 52]			100%		100%	
O=[N+]([O-])c1cc([N+](=O)[O-])c(Nc2ncc(Br)cc2Br)c(C(F)(F)F)c1 [compound 61]			100%	100%	100%	pest or weed control at 50 ppm (Pyricularia orzae): 100%
O=[N+]([O-])c1cc([N+](=O)[O-])c(Nc2ncc(Cl)cc2Br)c(C(F)(F)F)c1 [Compound No. 62]			100%	100%	100%	pest or weed control at 100 ppm (Sphaerotheca fuliginea): 100%
O=[N+]([O-])c1cc(C(F)(F)F)c(Cl)c([N+](=O)[O-])c1Nc1ncc(Br)cc1C(F)(F)F [compound 30]	100%			95%		pest or weed control at 250 ppm (Botrytis cinerea): 100%
O=[N+]([O-])c1cc(C(F)(F)F)cc([N+](=O)[O-])c1Nc1nc(Cl)c(C(F)(F)F)cc1Br [compound 32]	100%			100%		pest or weed control at 500 ppm (Sphaerotheca fuliginea): 100%
O=[N+]([O-])c1cc(C(F)(F)F)cc(C(F)(F)F)c1Nc1ncc(Cl)cc1Cl [compound 90]		100%				
O=[N+]([O-])c1cc(C(F)(F)F)cc(C(F)(F)F)c1Nc1ncc(C(F)(F)F)cc1Cl [compound 89]		100%				
O=[N+]([O-])c1cc(C(F)(F)F)c(Cl)c([N+](=O)[O-])c1Nc1ncc(C(F)(F)F)cc1Br [compound 21]	100%					pest or weed control at 500 ppm (Sphaerotheca fuliginea): 100%; pest or weed control at 250 ppm (Botrytis cinerea): 100%
O=[N+]([O-])c1cc([N+](=O)[O-])c(Nc2ccc(C(F)(F)F)c(Cl)n2)c(C(F)(F)F)c1 [compound 70]			100%		100%	
O=[N+]([O-])c1cc(C(F)(F)F)cc([N+](=O)[O-])c1Nc1ncc(C(F)(F)F)cc1Br [compound 22]	100%	100%				pest or weed control at 500 ppm (Sphaerotheca fuliginea): 100%; pest or weed control at 250 ppm (Botrytis cinerea): 100%
O=[N+]([O-])c1cc([N+](=O)[O-])c(Nc2ncccc2C(F)(F)F)c(C(F)(F)F)c1 [compound 81]			100%		100%	pest or weed control at 50 ppm (Pyricularia orzae): 100%
O=[N+]([O-])c1cc([N+](=O)[O-])c(Nc2ccc(Br)cn2)c(C(F)(F)F)c1 [compound 54]				90%	100%	pest or weed control at 50 ppm (Pyricularia orzae): 100%
